Measured values published in patent publication US10543212B2, “Substituted amines for treating cardiac diseases” (Cardurion Pharmaceuticals, LLC, priority 2017, dated 2020).

Target: T1, Full-length, GST-tagged, human CaMKIIδ (Homo sapiens, UniProt Q13557)
T1 construct: Full-Length, Glutathione-S-Transferase(GST)-Tagged, Human CaMKIIδ was purchased from Carna Biosciences; purchased Carna Biosciences 02-111
Assay: CaMKIIδ binding assay (TR-FRET with BODIPY-labeled probe ligand)
Conditions: Table 2; activity class for CaMKIIδ
Procedure, shortened: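 Compounds were tested as 4-fold, eight-point series for 1 hr at room temperature, and IC50 was obtained by logistic fitting against a 3 μM parent-compound control. Signal came from displacement of a 300 nM BODIPY ligand from 0.5 nM GST-CaMKIIδ, detected via Tb-anti-GST in calmodulin/Ca2+ (pH 7.6).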

T1 sequence (Q13557 1-478 isoform Q13557-12): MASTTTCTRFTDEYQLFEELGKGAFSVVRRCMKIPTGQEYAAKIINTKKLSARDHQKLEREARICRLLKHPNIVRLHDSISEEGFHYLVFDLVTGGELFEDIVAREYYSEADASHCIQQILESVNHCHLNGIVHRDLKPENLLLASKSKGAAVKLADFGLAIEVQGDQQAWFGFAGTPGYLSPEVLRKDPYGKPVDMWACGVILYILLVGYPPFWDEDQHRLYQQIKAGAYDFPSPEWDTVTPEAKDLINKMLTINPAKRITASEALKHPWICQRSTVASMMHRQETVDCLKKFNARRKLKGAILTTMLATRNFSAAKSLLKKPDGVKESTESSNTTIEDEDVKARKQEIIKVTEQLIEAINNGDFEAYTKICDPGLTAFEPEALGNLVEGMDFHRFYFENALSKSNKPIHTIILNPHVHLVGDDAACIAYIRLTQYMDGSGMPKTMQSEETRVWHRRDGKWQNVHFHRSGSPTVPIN

C[C@@H](Cn1cnnn1)Oc1cc(-c2cnc(Nc3cn(C4CCN(C5CCOCC5)CC4)nc3OC(F)F)nc2)ccc1Cl [Example 664, (S)-5-(3-((1-(1H-tetrazol-1-yl)propan-2-yl)oxy)-4-chlorophenyl)-N-(3-(difluoromethoxy)-1-(1-(tetrahydro-2H-pyran-4-yl)piperidin-4-yl)-1H-pyrazol-4-yl)pyrimidin-2-amine] and COc1nc(N2CCCN(C3CCOCC3)CC2)ccc1Nc1ncc(-c2ccc(Cl)c(O[C@@H](C)Cn3cnnn3)c2)cn1 [Example 667, (S)-5-(3-((1-(1H-tetrazol-1-yl)propan-2-yl)oxy)-4-chlorophenyl)-N-(2-methoxy-6-(4-(tetrahydro-2H-pyran-4-yl)-1,4-diazepan-1-yl)pyridin-3-yl)pyrimidin-2-amine] cannot be ordered by IC50: under 10 nM for the first, under 10 nM for the second.

Compared with COc1nc(N2CCCN(C(=O)OC(C)(C)C)CC2)ccc1Nc1ncc(-c2ccc(Cl)c(O[C@@H](C)Cn3cnnn3)c2)cn1 [Example 665, tert-butyl (S)-4-(5-((5-(3-((1-(1H-tetrazol-1-yl)propan-2-yl)oxy)-4-chlorophenyl)pyrimidin-2-yl)amino)-6-methoxypyridin-2-yl)-1,4-diazepane-1-carboxylate], COc1nc(N2CCCNCC2)ccc1Nc1ncc(-c2ccc(Cl)c(O[C@@H](C)Cn3cnnn3)c2)cn1 [Example 666, (S)-N-(6-(1,4-diazepan-1-yl)-2-methoxypyridin-3-yl)-5-(3-((1-(1H-tetrazol-1-yl)propan-2-yl)oxy)-4-chlorophenyl)pyrimidin-2-amine] is lower in IC50: at least 100 nM for the first, under 10 nM for the second.

CCn1cc(Nc2ncc(-c3ccc(Cl)c(O[C@@H](C)Cn4cnnn4)c3)cn2)c(N2CCC2)n1 [Example 668, (S)-5-(3-((1-(1H-tetrazol-1-yl)propan-2-yl)oxy)-4-chlorophenyl)-N-(3-(azetidin-1-yl)-1-ethyl-1H-pyrazol-4-yl)pyrimidin-2-amine] and CCn1cc(Nc2ncc(-c3ccc(Cl)c(O[C@@H](C)Cn4cnnn4)c3)cn2)c(N2CCCC2)n1 [Example 669, (S)-5-(3-((1-(1H-tetrazol-1-yl)propan-2-yl)oxy)-4-chlorophenyl)-N-(1-ethyl-3-(pyrrolidin-1-yl)-1H-pyrazol-4-yl)pyrimidin-2-amine] cannot be ordered by IC50: at least 100 nM for the first, 10 to 100 nM for the second.

C[C@@H](Cn1cnnn1)Oc1cc(-c2cnc(Nc3cn(C4CCC(O)CC4)nc3C(F)(F)F)nc2)ccc1Cl (stereo partly drawn) [Example 670, (S)-4-(4-((5-(3-((1-(1H-tetrazol-1-yl)propan-2-yl)oxy)-4-chlorophenyl)pyrimidin-2-yl)amino)-3-(trifluoromethyl)-1H-pyrazol-1-yl)cyclohexan-1-ol] and C[C@@H](Cn1cnnn1)Oc1cc(-c2cnc(Nc3cn(C4CCC(=O)CC4)nc3C(F)(F)F)nc2)ccc1Cl [Example 680, (S)-4-(4-((5-(3-((1-(1H-tetrazol-1-yl)propan-2-yl)oxy)-4-chlorophenyl)pyrimidin-2-yl)amino)-3-(trifluoromethyl)-1H-pyrazol-1-yl)cyclohexan-1-one] fall in the same range of IC50: 10 to 100 nM for the first, 10 to 100 nM for the second.

COc1nc(N2CCN(C3CC3)CC2)ccc1Nc1ncc(-c2ccc(Cl)c(O[C@@H](C)Cn3cnnn3)c2)cn1 [Example 671, (S)-5-(3-((1-(1H-tetrazol-1-yl)propan-2-yl)oxy)-4-chlorophenyl)-N-(6-(4-cyclopropylpiperazin-1-yl)-2-methoxypyridin-3-yl)pyrimidin-2-amine] and COc1cc(N2CCN3CCCC3C2)ccc1Nc1ncc(-c2ccc(Cl)c(O[C@@H](C)Cn3cnnn3)c2)cn1 (stereo partly drawn) [Example 672, 5-(3-(((S)-1-(1H-tetrazol-1-yl)propan-2-yl)oxy)-4-chlorophenyl)-N-(4-(hexahydropyrrolo[1,2-a]pyrazin-2(1H)-yl)-2-methoxyphenyl)pyrimidin-2-amine] cannot be ordered by IC50: under 10 nM for the first, under 10 nM for the second.

COc1cc(N2CCN3CCOCC3C2)ccc1Nc1ncc(-c2ccc(Cl)c(O[C@@H](C)Cn3cnnn3)c2)cn1 (stereo partly drawn) [Example 673, 5-(3-(((S)-1-(1H-tetrazol-1-yl)propan-2-yl)oxy)-4-chlorophenyl)-N-(4-(hexahydropyrazino[2,1-c][1,4]oxazin-8(1H)-yl)-2-methoxyphenyl)pyrimidin-2-amine] and COc1ccc(N2CCN(CC(N)=O)CC2)cc1Nc1ncc(-c2ccc(Cl)c(O[C@@H](C)Cn3cnnn3)c2)cn1 [Example 686, (S)-2-(4-(3-((5-(3-((1-(1H-tetrazol-1-yl)propan-2-yl)oxy)-4-chlorophenyl)pyrimidin-2-yl)amino)-4-methoxyphenyl)piperazin-1-yl)acetamide] cannot be ordered by IC50: under 10 nM for the first, under 10 nM for the second.

First: CCn1cc(Nc2ncc(-c3ccc(Cl)c(O[C@@H](C)Cn4cnnn4)c3)cn2)c(C(F)(F)F)n1 [Example 674, (S)-5-(3-((1-(1H-tetrazol-1-yl)propan-2-yl)oxy)-4-chlorophenyl)-N-(1-ethyl-3-(trifluoromethyl)-1H-pyrazol-4-yl)pyrimidin-2-amine]
Second: C[C@@H](Cn1cnnn1)Oc1cc(-c2cnc(Nc3cn(C4CCNCC4)nc3OCC(F)(F)F)nc2)ccc1Cl [Example 676, (S)-5-(3-((1-(1H-tetrazol-1-yl)propan-2-yl)oxy)-4-chlorophenyl)-N-(1-(piperidin-4-yl)-3-(2,2,2-trifluoroethoxy)-1H-pyrazol-4-yl)pyrimidin-2-amine]
The IC50 of the first is higher: 10 to 100 nM for the first, under 10 nM for the second.

First: C[C@@H](Cn1cnnn1)Oc1cc(-c2cnc(Nc3cn(C4CCN(C(=O)OC(C)(C)C)CC4)nc3OCC(F)(F)F)nc2)ccc1Cl [Example 675, tert-butyl (S)-4-(4-((5-(3-((1-(1H-tetrazol-1-yl)propan-2-yl)oxy)-4-chlorophenyl)pyrimidin-2-yl)amino)-3-(2,2,2-trifluoroethoxy)-1H-pyrazol-1-yl)piperidine-1-carboxylate]
Second: C[C@@H](Cn1cnnn1)Oc1cc(-c2cnc(Nc3cn(C4CCCCO4)nc3OCC(F)(F)F)nc2)ccc1Cl (stereo partly drawn) [Example 678, 5-(3-(((S)-1-(1H-tetrazol-1-yl)propan-2-yl)oxy)-4-chlorophenyl)-N-(1-(tetrahydro-2H-pyran-2-yl)-3-(2,2,2-trifluoroethoxy)-1H-pyrazol-4-yl)pyrimidin-2-amine]
The IC50 of the first is higher: 10 to 100 nM for the first, under 10 nM for the second.

CNC(=O)C1CN(c2ccc(OC)c(Nc3ncc(-c4ccc(Cl)c(O[C@@H](C)Cn5cnnn5)c4)cn3)c2)C1 [Example 679, (S)-1-(3-((5-(3-((1-(1H-tetrazol-1-yl)propan-2-yl)oxy)-4-chlorophenyl)pyrimidin-2-yl)amino)-4-methoxyphenyl)-N-methylazetidine-3-carboxamide] and COc1ccc(C(=O)N2CCN(CC3CC3)CC2)cc1Nc1ncc(-c2ccc(Cl)c(O[C@@H](C)Cn3cnnn3)c2)cn1 [Example 681, (S)-(3-((5-(3-((1-(1H-tetrazol-1-yl)propan-2-yl)oxy)-4-chlorophenyl)pyrimidin-2-yl)amino)-4-methoxyphenyl) (4-(cyclopropylmethyl)piperazin-1-yl)methanone] cannot be ordered by IC50: under 10 nM for the first, under 10 nM for the second.

For C[C@@H](Cn1cnnn1)Oc1cc(-c2cnc(Nc3cc(C4CCN(C5COC5)CC4)c(F)cc3F)nc2)ccc1Cl [Example 684, (S)-5-(3-((1-(1H-tetrazol-1-yl)propan-2-yl)oxy)-4-chlorophenyl)-N-(2,4-difluoro-5-(1-(oxetan-3-yl)piperidin-4-yl)phenyl)pyrimidin-2-amine], the IC50 was 10 to 100 nM.
